What was measured:
[1] = system: GM3 expression on the cell surface, C32 human melanoma cells; assay: cell based phenotypic assay, cell surface GM3 by antibody mediated immunofluorescence, C32 (GM3 C32 IC50); conditions: Homo sapiens, C32 human melanoma cells; 50% inhibition of GM3 expression on the cell surface; read-out: GM3 C32 IC50
In short: (§1)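 B16 mouse and C32 human melanoma cells; cell-surface GM3 measured by antibody-mediated immunofluorescence, giving IC50.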

[2] = system: C32 human melanoma cells; assay: cell viability in the C32 cell-based assay (Viability, C32 IC50); conditions: Homo sapiens, C32, C32 cells; concentration causing 50% cell death; values greater than 10 represent a lack of cell death; read-out: Viability, C32 IC50
In short: (§2)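 Both lines undergo the phenotypic GM3 assay, and viability is recorded from that same cell-based run.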

[3] = molecular target: T1, glucosylceramide synthase (Homo sapiens, UniProt Q16739); assay: microsomal assay measuring conversion of ceramide to glucosylceramide by HPLC (GCS IC50); assay type: biochemical; conditions: concentration causing 50% inhibition of glucosylceramide synthase activity
T1 construct: Microsomes were isolated from A375 human melanoma cells; endogenous in cells; host or cells: A375 human melanoma cells (microsomal fraction, 100,000 g pellet)
T1 sequence (Q16739 1-394): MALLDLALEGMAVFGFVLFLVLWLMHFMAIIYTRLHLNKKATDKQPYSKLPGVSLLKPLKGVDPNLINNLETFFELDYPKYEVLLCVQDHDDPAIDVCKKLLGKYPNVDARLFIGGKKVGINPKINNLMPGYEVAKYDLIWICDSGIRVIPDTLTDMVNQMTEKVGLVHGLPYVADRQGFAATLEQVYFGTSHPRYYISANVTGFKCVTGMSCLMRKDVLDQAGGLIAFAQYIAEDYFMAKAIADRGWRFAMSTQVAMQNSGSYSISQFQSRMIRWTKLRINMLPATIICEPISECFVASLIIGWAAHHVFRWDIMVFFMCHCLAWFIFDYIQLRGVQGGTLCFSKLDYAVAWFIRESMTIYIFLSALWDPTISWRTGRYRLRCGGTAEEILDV
In short: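 Microsomal preparation assayed for glucosylceramide synthase by direct HPLC measurement of ceramide conversion to glucosylceramide. GCS IC50 is the compound concentration giving 50% inhibition of enzyme activity.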

[4] = system: GM3 expression on the cell surface, B16 mouse melanoma cells; assay: cell based phenotypic assay, cell surface GM3 by antibody mediated immunofluorescence, B16 (GM3 B16 IC50); conditions: Mus musculus, B16 mouse melanoma cells; 50% inhibition of GM3 expression on the cell surface; read-out: GM3 B16 IC50
In short: as §1

[5] = system: B16 mouse melanoma cells; assay: cell viability in the B16 cell-based assay (Viability, B16 IC50); conditions: Mus musculus, B16, B16 cells; concentration causing 50% cell death; values greater than 10 represent a lack of cell death; read-out: Viability, B16 IC50
In short: as §2

SMILES	IC50 [1] [nM]	IC50 [2] [nM]	IC50 [3] [nM]	IC50 [4] [nM]	IC50 [5] [nM]
CC1(NC(=O)C2CCN(c3nccc(-c4ccc(F)cc4)n3)CC2)CCN2CCC1CC2 (stereo not drawn) [Example 41, 1-(4-(4-Fluorophenyl)pyrimidin-2-yl)-N-(4-methyl-1-azabicyclo[3.2.2]nonan-4-yl)piperidine-4-carboxamide]	0.124	20	1.14	9.7	6440
CC1(NC(=O)C2CCN(c3nccc(-c4ccc(F)cc4)n3)CC2)CN2CCC1CC2 (stereo not drawn) [Example 44, 1-(4-(4-Fluorophenyl)pyrimidin-2-yl)-N-(3-methylquinuclidin-3-yl)piperidine-4-carboxamide]	0.205	316	1.24	49.9	9270
O=C(NC1CN2CCC1CC2)C1CCN(c2nccc(-c3ccc(F)cc3)n2)CC1 (stereo not drawn) [Example 45, 1-(4-(4-Fluorophenyl)pyrimidin-2-yl)-N-(quinuclidin-3-yl)piperidine-4-carboxamide]	0.457	1000	2.67	125	≥ 10000
CC1(NC(=O)C2CCN(c3cncc(-c4ccc(F)cc4)n3)CC2)CCN2CCC1CC2 (stereo not drawn) [Example 46, 1-(6-(4-Fluorophenyl)pyrazin-2-yl)-N-(4-methyl-1-azabicyclo[3.2.2]nonan-4-yl)piperidine-4-carboxamide]	0.425	316	2.79	76.6	7310
CC1(NC(=O)C2CCN(c3cncc(-c4ccc(F)cc4)n3)CC2)CN2CCC1CC2 (stereo not drawn) [Example 49, 1-(6-(4-Fluorophenyl)pyrazin-2-yl)-N-(3-methylquinuclidin-3-yl)piperidine-4-carboxamide]	0.822	1000	4.1	145	8160
CC1(NC(=O)C2CCN(c3ncnc(-c4ccc(F)cc4)n3)CC2)CCN2CCC1CC2 (stereo not drawn) [Example 50, 1-(4-(4-Fluorophenyl)-1,3,5-triazin-2-yl)-N-(4-methyl-1-azabicyclo[3.2.2]nonan-4-yl)piperidine-4-carboxamide]	0.708	3160	32.5	162	≥ 10000
CC1(NC(=O)C2CCN(c3ccnc(-c4ccc(F)cc4)n3)CC2)CCN2CCC1CC2 (stereo not drawn) [Example 51, 1-(2-(4-Fluorophenyl)pyrimidin-4-yl)-N-(4-methyl-1-azabicyclo[3.2.2]nonan-4-yl)piperidine-4-carboxamide]	3.88	3160	46.6	335	8260
CC1(NC(=O)N2CCC(c3cccc(-c4ccccc4)c3)CC2)CCN2CCC1CC2 (stereo not drawn) [Example 52, 4-([1,1′-Biphenyl]-3-yl)-N-(4-methyl-1-azabicyclo[3.2.2]nonan-4-yl)piperidine-1-carboxamide]	337	8640	503	1060	7360
CC1(NC(=O)N2CCC(c3ccc(-c4ccccc4)cc3)CC2)CCN2CCC1CC2 (stereo not drawn) [Example 53, 4-([1,1′-Biphenyl]-4-yl)-N-(4-methyl-1-azabicyclo[3.2.2]nonan-4-yl)piperidine-1-carboxamide]	175	6290	2210	1240	6740
CC1(NC(=O)C2CCN(c3ncc(F)c(-c4ccc(F)cc4)n3)CC2)CN2CCC1CC2 (stereo not drawn) [Example 54, 1-(5-Fluoro-4-(4-fluorophenyl)pyrimidin-2-yl)-N-(3-methylquinuclidin-3-yl)piperidine-4-carboxamide]	0.0902	8040	0.734	106	5130
CC1(NC(=O)C2CCN(c3ncc(F)c(-c4ccc(F)cc4)n3)CC2)CCN2CCC1CC2 (stereo not drawn) [Example 55, 1-(5-Fluoro-4-(4-fluorophenyl)pyrimidin-2-yl)-N-(4-methyl-1-azabicyclo[3.2.2]nonan-4-yl)piperidine-4-carboxamide]	0.0479	100	0.736	47.5	3740
COCCOc1ccc(-c2nc(N3CCC(C(=O)NC4(C)CCN5CCC4CC5)CC3)ncc2F)cc1 (stereo not drawn) [Example 56, 1-(5-Fluoro-4-(4-(2-methoxyethoxy)phenyl)pyrimidin-2-yl)-N-(4-methyl-1-azabicyclo[3.2.2]nonan-4-yl)piperidine-4-carboxamide]	0.173	7420	4.63	20.9	6760
COCCOCc1ccc(-c2nc(N3CCC(C(=O)NC4(C)CCN5CCC4CC5)CC3)ncc2F)cc1 (stereo not drawn) [Example 58, 1-(5-Fluoro-4-(4-((2-methoxyethoxy)methyl)phenyl)pyrimidin-2-yl)-N-(4-methyl-1-azabicyclo[3.2.2]nonan-4-yl)piperidine-4-carboxamide]	0.17	1000	3.39	40.5	≥ 10000
COCCOCc1ccc(-c2nc(N3CCC(C(=O)NC4(C)CN5CCC4CC5)CC3)ncc2F)cc1 (stereo not drawn) [Example 59, 1-(5-Fluoro-4-(4-((2-methoxyethoxy)methyl)phenyl)pyrimidin-2-yl)-N-(3-methylquinuclidin-3-yl)piperidine-4-carboxamide]	0.339	464	9.18	152	≥ 10000
COCc1ccc(-c2nc(N3CCC(C(=O)NC4(C)CCN5CCC4CC5)CC3)ncc2F)cc1 (stereo not drawn) [Example 60, 1-(5-Fluoro-4-(4-(methoxymethyl)phenyl)pyrimidin-2-yl)-N-(4-methyl-1-azabicyclo[3.2.2]nonan-4-yl)piperidine-4-carboxamide]	0.1	46.4	1.68	15.5	3500
COCc1ccc(-c2nc(N3CCC(C(=O)NC4(C)CN5CCC4CC5)CC3)ncc2F)cc1 (stereo not drawn) [Example 61, 1-(5-Fluoro-4-(4-(methoxymethyl)phenyl)pyrimidin-2-yl)-N-(3-methylquinuclidin-3-yl)piperidine-4-carboxamide]	0.13	46.4	1.41	52.4	8540
COCCCOc1ccc(-c2nc(N3CCC(C(=O)NC4(C)CCN5CCC4CC5)CC3)ncc2F)cc1 (stereo not drawn) [Example 62, 1-(5-Fluoro-4-(4-(3-methoxypropoxy)phenyl)pyrimidin-2-yl)-N-(4-methyl-1-azabicyclo[3.2.2]nonan-4-yl)piperidine-4-carboxamide]	0.109	100	0.931	10.5	2390
COCCCOc1ccc(-c2nc(N3CCC(C(=O)NC4(C)CN5CCC4CC5)CC3)ncc2F)cc1 (stereo not drawn) [Example 63, 1-(5-Fluoro-4-(4-(3-methoxypropoxy)phenyl)pyrimidin-2-yl)-N-(3-methylquinuclidin-3-yl)piperidine-4-carboxamide]	0.0988	100	0.586	40.8	3520
CC1(NC(=O)C2CCN(c3nccc(-c4ccc(F)c(F)c4)n3)CC2)CCN2CCC1CC2 (stereo not drawn) [Example 64, 1-(4-(3,4-Difluorophenyl)pyrimidin-2-yl)-N-(4-methyl-1-azabicyclo[3.2.2]nonan-4-yl)piperidine-4-carboxamide]	0.062	5530	1.7	32.9	3420
CC1(NC(=O)C2CCN(c3nccc(-c4cc(F)cc(F)c4)n3)CC2)CCN2CCC1CC2 (stereo not drawn) [Example 65, 1-(4-(3,5-Difluorophenyl)pyrimidin-2-yl)-N-(4-methyl-1-azabicyclo[3.2.2]nonan-4-yl)piperidine-4-carboxamide]	0.0934	215	1.31	56.1	4140
COCCOc1ccc(-c2ccnc(N3CCC(C(=O)NC4(C)CCN5CCC4CC5)CC3)n2)cc1 (stereo not drawn) [Example 66, 1-(4-(4-(2-Methoxyethoxy)phenyl)pyrimidin-2-yl)-N-(4-methyl-1-azabicyclo[3.2.2]nonan-4-yl)piperidine-4-carboxamide]	0.329	215	3.17	69.3	8200
